Measurements reported in US20260234146A1, “Use of Hypoxia-Inducible Factor-Prolyl Hydroxylase Inhibitor (HIF-PHI) in Rare Anemia” (Kind Pharmaceutical, priority 2023, published 2026).

Assays:
Townes SCD model mouse = experiment: Effect on SCD anemia mice (RBC, Hb, HCT); assay type: in vivo
Procedure: Throughout the experimental stage, animals were housed in cages in an animal room with 24-hour continuous central air conditioning, temperature set at 20-26° C., relative air humidity set at 40-70%, and a 12-hour light/dark cycle. All animals had free access to food and sterilized drinking water. The animal strain was B6·Cg-Hbb^tm2(HBG1,HBB)Tow/Hbat^ml(HBA)Tow/ShmtJ mice, a Townes SCD model mouse where mouse endogenous hemoglobin is replaced by knocked-in human hemoglobin. Two weeks after birth, mice were ear-punched for identification, and the ear tissue was collected for PCR analysis to determine its genotype. Mice confirmed as B6·Cg-Hbb^tm2(HBG1,HBB)Tow/Hbat^ml(HBA)Tow/ShmtJ were grouped. […] Blood sampling was performed every other week. Mice showing symptoms of anemia were selected for dosing. Animals were randomly divided into groups, 6 animals per group: Vehicle control group (0.1 M meglumine aqueous solution; oral gavage; volume: 6.67 mL/kg), Comp-1 group (30 mpk; oral gavage; volume: 6.67 mL/kg), and EPO group (50 U/30 g body weight; SC injection; MyBioSource, cat. #: MBS650094, erythropoietin alpha). Dosing was administered three times a week (TIW) for 4 consecutive weeks. On days 14 and 28 of dosing, 70 μL of blood was collected from orbit. Collected blood samples were placed in heparin-anticoagulant tubes. 15 μL of the blood sample from the anticoagulant tube was aspirated and added to an Element HT5 Veterinary Hematology Analyzer. RBC, Hb, and HCT in the blood were measured according to the instrument's operating instructions. Data analysis was performed using GraphPad Prism 9.0. […]

MDS model mice = experiment: Effect on MDS model mice (RBC, Hb, HCT); assay type: in vivo, C57 mice; conditions: 50 U/30 g
[1] = 30 mpk oral gavage TIW group, baseline, average of six mice
[2] = 30 mpk oral gavage TIW, end of the four-week experiment, average of five mice
[3] = 50 U/30 g SC TIW, After 2 weeks of dosing Week 2
[4] = 50 U/30 g SC TIW, After 4 weeks of dosing Week 4
[5] = 50 U/30 g group, Before dosing Week 0

Row | Compound | HCT (Townes SCD model mouse; [1]) | Hb (Townes SCD model mouse; [1]) | RBC (Townes SCD model mouse; [1]) | HCT (Townes SCD model mouse; [2]) | Hb (Townes SCD model mouse; [2]) | RBC (Townes SCD model mouse; [2]) | Mortality (Townes SCD model mouse; 30 mpk, oral gavage, TIW, after two weeks of dosing) | Arithmetic mean of HCT hematocrit (Townes SCD model mouse; [3]) | Arithmetic mean of HGB hemoglobin content (Townes SCD model mouse; [3]) | Arithmetic mean of RBC red blood cell count (Townes SCD model mouse; [3]) | Arithmetic mean of HCT hematocrit (Townes SCD model mouse; [4]) | Arithmetic mean of HGB hemoglobin content (Townes SCD model mouse; [4]) | Arithmetic mean of RBC red blood cell count (Townes SCD model mouse; [4]) | Arithmetic mean of HCT hematocrit (Townes SCD model mouse; [5]) | Arithmetic mean of HGB hemoglobin content (Townes SCD model mouse; [5]) | Arithmetic mean of RBC red blood cell count (Townes SCD model mouse; [5]) | Therapeutic effect in the SCD mouse model (Townes SCD model mouse; 50 U/30 g, SC injection, TIW, 4 weeks) | Improvement of RBC, Hb, or HCT values (MDS model mice)
1 | O=C(O)CNC(=O)C1C(=O)N(C2CCCCC2)C(=O)N(C2CCCCC2)C1=O [Daprodustat, reference compound] | 31.8% | 9.1 g/dL | 6.14 M/μL | 35.9% | 10.9 g/dL | 7.54 M/μL | One mouse in the Daprodustat group including six mice in total died |  |  |  |  |  |  |  |  |  |  | 
2 | EPO: EPO positive control; MyBioSource, cat. #: MBS650094, erythropoietin alpha |  |  |  |  |  |  |  | 25.02% | 7.52 g/dL | 5.80 M/μL | 23.25% | 6.87 g/dL | 5.43 M/μL | 27.00% | 8.37 g/dL | 6.25 M/μL | no therapeutic effect in the SCD mouse model | Neither Roxadustat nor EPO improved RBC, Hb, or HCT values
